PubChem BioAssay (NCI)
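Five compound concentrations were applied to cells in 96-well plates for 48 hours; endpoints were derived by simple linear interpolation of the resulting dose-response curve. GI50 is the concentration that inhibits growth by half. At the TGI there is no net growth.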

How the values were obtained:
Assay in all cases: inhibition of tumour cell growth, NCI panel, 48 h
SF-539 CNS = test system: SF-539 CNS
SF-295 CNS = test system: SF-295 CNS
HCT-15 colon = test system: HCT-15 colon
K-562 leukemia = test system: K-562 leukemia
ACHN renal = test system: ACHN renal
HOP-62 NSCLC = test system: HOP-62 NSCLC
SN12C renal = test system: SN12C renal
RXF 393 renal = test system: RXF 393 renal
A549 NSCLC = test system: A549 NSCLC

Structure (SMILES)	GI50 (SF-539 CNS) [µM]	TGI (SF-539 CNS) [µM]	GI50 (SF-295 CNS) [µM]	TGI (SF-295 CNS) [µM]	GI50 (HCT-15 colon) [µM]	TGI (HCT-15 colon) [µM]	GI50 (K-562 leukemia) [µM]	TGI (K-562 leukemia) [µM]	GI50 (ACHN renal) [µM]	TGI (ACHN renal) [µM]	GI50 (HOP-62 NSCLC) [µM]	TGI (HOP-62 NSCLC) [µM]	GI50 (SN12C renal) [µM]	TGI (SN12C renal) [µM]	GI50 (RXF 393 renal) [µM]	TGI (RXF 393 renal) [µM]	GI50 (A549 NSCLC) [µM]	TGI (A549 NSCLC) [µM]
C=CCCCC(O)c1ccc(C(O)c2cnc3ccccc3c2)o1 (stereo unspecified)	27.9	82.5	35.6	> 100	31.4	> 100	25	52.6	25.4	61.6	21.2	64.9	30.9	90.9	83.2	> 100	31	> 100
COc1cc(/C=C2\CC3C4CCC5=CC(=O)CC[C@]5(C)C4CC[C@]3(C)C2=O)ccc1OCCN1CCCCC1 (stereo partly specified)	–	–	2.02	4.24	3.9	16	2.8	16.6	3.84	13.1	2.36	6.66	2.79	9.56	2.58	10.4	11	41.1
Cc1nc2cc(Nc3nc(Nc4ccc(F)cc4)nc(N4CCCC4)n3)ccc2n1Cc1ccccc1	1.79	3.32	2.15	4.78	1.88	3.99	–	–	2.19	5.41	1.74	3.45	1.84	3.45	1.55	3.09	2.05	4.63
COc1cc2oc(-c3ccc(O)cc3)cc(=O)c2c(OC)c1O	–	> 100	–	> 100	–	> 100	–	> 100	–	> 100	–	> 100	–	> 100	–	> 100	–	> 100
C=C1CCC2(C(C)=O)COC1(C)O2 (stereo unspecified)	–	> 100	–	> 100	–	> 100	–	> 100	–	> 100	–	> 100	–	> 100	–	> 10	–	> 100
CN(CCCCN)c1ccc2c(=O)[nH][nH]c(=O)c2c1	–	> 100	–	> 100	–	> 100	–	> 100	–	> 100	–	> 100	–	> 100	–	> 100	–	> 100
C1=CC(=NN=P(c2ccccc2)(c2ccccc2)c2ccccc2)C=C1	–	–	–	–	–	> 100	–	> 100	–	> 100	–	> 100	–	> 100	–	> 100	–	> 100
Cn1cc(-c2ccc3nnc(C(F)(F)c4ccc5ncccc5c4)n3n2)cn1	47.5	> 100	3.82	> 100	73	> 100	78.1	> 100	32.8	> 100	56.4	> 100	35.4	> 100	25.9	> 86.6	60.2	> 100
C/C(CC(=O)Nc1ccc([N+](=O)[O-])cc1)=N\Nc1ccc([N+](=O)[O-])cc1[N+](=O)[O-]	–	> 100	–	> 100	–	> 100	–	> 100	–	> 100	–	> 100	–	–	–	> 100	–	> 100
Cn1c2c(c3ccccc31)CCN(CCCN1CCN(c3ccccc3)CC1)C2=O	–	31.7	–	37.8	–	50	–	38.3	–	44.7	–	–	–	46.7	–	32.6	–	61
Cc1cc(N(CCC#N)CCC#N)ccc1CC1N=C(c2ccccc2)OC1=O (stereo unspecified)	–	> 100	–	> 100	–	> 100	–	> 100	–	> 100	–	> 100	–	> 100	–	–	–	> 100
O=c1[nH]c(-c2ccc([N+](=O)[O-])cc2)nc2ccc(Cl)cc12	–	> 100	–	> 100	–	> 100	–	38.8	–	> 100	–	–	–	> 100	–	> 100	–	> 100
Cc1cc(C)c(C2=NO[C@@H]3C(=O)N(c4ccc(Cc5ccc(N6C(=O)[C@H]7C(c8c(C)cc(C)cc8C)=NO[C@H]7C6=O)cc5)cc4)C(=O)[C@H]23)c(C)c1	–	> 100	–	> 100	–	> 100	–	> 100	–	–	–	> 100	–	> 100	–	> 100	–	> 100
C=C(C)[C@@H]1CC[C@]2(C(=O)N3CCN(C)CC3)CC[C@]3(C)[C@H](CC[C@@H]4[C@@]5(C)CC[C@H](O)C(C)(C)[C@@H]5CC[C@]43C)[C@@H]12	1.69	3.12	1.68	3.27	1.69	3.86	–	–	1.69	3.12	1.91	3.75	1.72	3.46	1.53	3.21	1.88	3.88
CN(CC1NCCCC1O)C12CC3CC(CC(C3)C1)C2 (stereo unspecified)	–	> 100	–	> 100	–	> 100	–	> 100	–	> 100	–	> 100	–	> 100	–	–	–	> 100
